Series [1] can be described thus: Drug level in rat liver microsomes treated with (S)-N1-(5-(2-tert-butylpyrimidin-4-yl)-4-methylthiazol-2-yl)pyrrolidine-1,2-dicarboxamide at 5 uM measured immediately after compound addition in presence of alamethicin,uridine 5'-diphospho-glucuronic acid,glutathione,NADPH by capillary-HPLC/MS analysis. Type of series: ADME.
A short description of series [2]: Drug level in human liver microsomes treated with (S)-N1-(5-(2-tert-butylpyrimidin-4-yl)-4-methylthiazol-2-yl)pyrrolidine-1,2-dicarboxamide at 5 uM measured after 1 hr in presence of alamethicin,uridine 5'-diphospho-glucuronic acid,glutathione,NADPH by capillary-HPLC/MS analysis. Type of series: ADME.
The nature of series [3]: Drug level in rat liver microsomes treated with (S)-N1-(5-(2-tert-butylpyrimidin-4-yl)-4-methylthiazol-2-yl)pyrrolidine-1,2-dicarboxamide at 5 uM measured after 1 hr in presence of alamethicin,uridine 5'-diphospho-glucuronic acid,glutathione,NADPH by capillary-HPLC/MS analysis. It is filed as ADME. For orientation: Liver microsomes are a subcellular fraction often used to study metabolism.

Series [4] is described as follows: Volume of distribution at steady state in Sprague-Dawley rat at 1 mg/kg, iv or 3 mg/kg, po administered in cassette mode measured up to 48 hrs. It is filed as ADME, organism-based. Conditions: in vivo, read-out: Vdss.
Series [5] in a line: Stability in Sprague-Dawley rat blood assessed as compound remaining at 1 mg/kg, iv administered in cassette mode measured after 0.5 hrs by capillary-HPLC/MS analysis. It is filed as ADME, organism-based. Conditions: whole blood, read-out: Stability.
Series [6] is described as follows: Dose normalized Cmax in Sprague-Dawley rat at 1 mg/kg, iv or 3 mg/kg, po administered in cassette mode. Type of series: ADME, organism-based. Conditions: in vivo.
A short description of series [7]: Dose normalized AUC in Sprague-Dawley rat at 3 mg/kg, po administered in cassette mode measured up to 48 hrs. The following applies: in vivo. It is filed as ADME, organism-based.
For series [8], the species on record is Mus musculus. The following applies: Harlan, Rat1, 50 mg/kg.
Series [9] can be described thus: Stability in Sprague-Dawley rat blood assessed as compound remaining at 3 mg/kg, po administered in cassette mode measured after 1 hr by capillary-HPLC/MS analysis. Type of series: ADME, organism-based. Conditions: whole blood, read-out: Stability.
Series [10] is described as follows: AUC (0 to 24 hrs) in Harlan nude mouse plasma xenografted with Rat1 cells expressing myr-p110alpha at 100 mg/kg, po qd administered for 8 days measured post last dose. It is filed as ADME, organism-based. The arrangement: dose 100 mg/kg, time < 24 hr, route oral.
Series [11] can be described thus: Intrinsic clearance in human liver microsomes at 1 uM after 5 to 30 mins in presence of NADPH by LC-MS/MS analysis. It is filed as ADME. Conditions: read-out: CLH.
Series [12] in a line: Terminal half life in Sprague-Dawley rat at 3 mg/kg, po administered in cassette mode. Type of series: ADME, organism-based. Conditions: in vivo, read-out: beta t1/2 (converted).
The nature of series [13]: AUC (0 to 24 hrs) in Harlan nude mouse plasma xenografted with Rat1 cells expressing myr-p110alpha at 50 mg/kg, po qd administered for 8 days measured post last dose. Type of series: ADME, organism-based. The arrangement: time < 24 hr, dose 50 mg/kg, route oral.
The nature of series [14]: Dose normalized AUC in Sprague-Dawley rat at 1 mg/kg, iv administered in cassette mode measured up to 48 hrs. Type of series: ADME, organism-based. Conditions: in vivo.
Series [15] is described as follows: AUC (0 to 24 hrs) in Harlan nude mouse plasma xenografted with Rat1 cells expressing myr-p110alpha at 150 mg/kg, po qd administered for 8 days measured post last dose. Type of series: ADME, organism-based. The arrangement: time < 24 hr, dose 150 mg/kg, route oral.
Series [16] in a line: Intrinsic clearance in mouse liver microsomes at 1 uM after 5 to 30 mins in presence of NADPH by LC-MS/MS analysis. It is filed as ADME. The following applies: read-out: CLH.
A short description of series [17]: Tmax in Sprague-Dawley rat at 1 mg/kg, iv or 3 mg/kg, po administered in cassette mode. Type of series: ADME, organism-based. Conditions: in vivo.
The nature of series [18]: Antitumor activity in Rat1 cells expressing myr-p110alpha xenografted in Harlan nude mouse assessed as tumor regression at 150 mg/kg, po qd administered for 8 days measured post last dose. It is filed as functional, Rattus norvegicus.
The nature of series [19]: Stability in rat liver microsomes assessed as compound remaining at 5 uM measured after 1 hr in presence of alamethicin,uridine 5'-diphospho-glucuronic acid,glutathione,NADPH by capillary-HPLC/MS analysis (reference value: 96.3 %). The following applies: read-out: Stability. Type of series: ADME.
Series [20] can be described thus: Stability in Sprague-Dawley rat blood assessed as compound remaining at 1 mg/kg, iv administered in cassette mode measured after 1 hr by capillary-HPLC/MS analysis. The following applies: whole blood, read-out: Stability. It is filed as ADME, organism-based.
The nature of series [21]: Stability in rat liver microsomes assessed as compound remaining at 5 uM measured immediately after compound addition in presence of alamethicin,uridine 5'-diphospho-glucuronic acid,glutathione,NADPH by capillary-HPLC/MS analysis (reference value: 96.3 %). It is filed as ADME. The following applies: read-out: Stability.
Series [22] can be described thus: Stability in Sprague-Dawley rat blood assessed as compound remaining at 3 mg/kg, po administered in cassette mode measured after 0.5 hrs by capillary-HPLC/MS analysis. Type of series: ADME, organism-based. Conditions: whole blood, read-out: Stability.
The species entered for series [23] is Mus musculus. Conditions: Harlan, Rat1, 50 mg/kg. The source holds these as a separate data set.
Series [24] in a line: Stability in human liver microsomes assessed as compound remaining at 5 uM measured after 1 hr in presence of alamethicin,uridine 5'-diphospho-glucuronic acid,glutathione,NADPH by capillary-HPLC/MS analysis (reference value: 96.3 %). Type of series: ADME. The following applies: read-out: Stability.
A short description of series [25]: Antitumor activity in Rat1 cells expressing myr-p110alpha xenografted in Harlan nude mouse assessed as tumor regression at 100 mg/kg, po qd administered for 8 days measured post last dose. Type of series: functional, Rattus norvegicus.
Series [26] can be described thus: Intrinsic clearance in rat liver microsomes at 1 uM after 5 to 30 mins in presence of NADPH by LC-MS/MS analysis. It is filed as ADME. Conditions: read-out: CLH.
Series [27] is described as follows: Oral bioavailability in Sprague-Dawley rat at 3 mg/kg administered in cassette mode measured up to 48 hrs. Type of series: ADME, organism-based. The following applies: in vivo.
The nature of series [28]: Drug level in rat hepatocytes treated with 1 uM (2S)-N1-[4-methyl-5-[2-[2,2,2-trideuterio-1,1-bis(trideuteriomethyl)ethyl]pyrimidin-4-yl]thiazol-2-yl]pyrrolidine-1,2-dicarboxamide measured after 40 to 60 mins by capillary-HPLC/MS analysis. It is filed as ADME, cell-based, Hepatocyte.
A short description of series [29]: Drug level in human hepatocytes treated with 1 uM (2S)-N1-[4-methyl-5-[2-[2,2,2-trideuterio-1,1-bis(trideuteriomethyl)ethyl]pyrimidin-4-yl]thiazol-2-yl]pyrrolidine-1,2-dicarboxamide measured after 40 to 60 mins by capillary-HPLC/MS analysis. It is filed as ADME, cell-based, Hepatocyte.
A short description of series [30]: Stability in human hepatocytes assessed as compound remaining at 1 uM measured after 40 to 60 mins by capillary-HPLC/MS analysis. It is filed as ADME, cell-based, Hepatocyte. The following applies: read-out: Stability.
Series [31] is described as follows: Clearance in Sprague-Dawley rat at 1 mg/kg, iv administered in cassette mode measured up to 48 hrs. It is filed as ADME, organism-based. Conditions: in vivo.
Series [32] is described as follows: Stability in rat hepatocytes assessed as compound remaining at 1 uM measured after 40 to 60 mins by capillary-HPLC/MS analysis. The following applies: read-out: Stability. It is filed as ADME, cell-based, Hepatocyte.
The nature of series [33]: Antitumor activity in Rat1 cells expressing myr-p110alpha xenografted in Harlan nude mouse assessed as tumor regression at 25 mg/kg, po qd administered for 8 days measured post last dose. Type of series: functional, Rattus norvegicus.
Series [34] can be described thus: Antitumor activity in Rat1 cells expressing myr-p110alpha xenografted in Harlan nude mouse assessed as tumor regression at 50 mg/kg, po qd administered for 8 days measured post last dose. It is filed as functional, Rattus norvegicus.

Calls of active or inactive are those of the source. No cut-off for these calls is given here.

On to `Cc1nc(NC(=O)N2CCC[C@H]2C(=O)O)sc1-c1ccnc(C(C)(C)C)n1`, for which the Drug metabolism result in series [1], in series [2] and in [3] was “Metabolite_Detected” throughout.

Regarding `Cc1nc(NC(=O)N2CCC[C@H]2C(N)=O)sc1-c1ccnc(C(C)(C)C)n1`, the Vd in [4] was 1.2 L/kg. Also, the values for the remaining at 0.5 h in series [5] and in series [22] were 90% and 74%, respectively. In addition, the Cmax/dose in series [6] came to 0.18 µM. In addition, the figures for the AUC/dose in series [7] and in series [14] were 527 nM·kg·h/mg and 2010 nM·kg·h/mg, respectively. Further, the inhibition result in [8] and in series [23] was “Active” in each case. The results for the remaining at 1 h in series [9] and in [20] were 73% and 86%, respectively. Besides, the AUC (usually the area under the concentration-time curve, a measure of exposure) at 24 h in series [10] amounted to 134 µM·h; in series [13], 65 µM·h; in series [15] it was 383 µM·h. Also, the microsomal CLint at 1 µM in series [11] was determined as 32 µL/min/mg; in series [16], 35 µL/min/mg; in [26], 55 µL/min/mg. Further, the half-life in [12] was 72 min. Besides, in series [17], the Tmax (in general, the time from dosing to the highest level) came to 18 min. In addition, the Activity in series [18] stood at 51%; in series [25], 10%. Moreover, the values for the remaining at 1 h, 5 µM in series [19] and in series [24] were 87.2% and 90.8%, respectively. Further, in series [21], the remaining at 0 min, 5 µM came to 98.9%. For the same molecule, the bioavailability (as a rule, the share of a dose that reaches the circulation, judged against a reference dose that is usually intravenous) in series [27] turned out to be 26%.

`[2H]C([2H])([2H])C(c1nccc(-c2sc(NC(=O)N3CCC[C@H]3C(=O)O)nc2C)n1)(C([2H])([2H])[2H])C([2H])([2H])[2H]`: the Drug metabolism entry in series [28] and in series [29] was “Metabolite_Detected” throughout.

With `[2H]C([2H])([2H])C(c1nccc(-c2sc(NC(=O)N3CCC[C@H]3C(N)=O)nc2C)n1)(C([2H])([2H])[2H])C([2H])([2H])[2H]`, the figures for the remaining at 1 µM in [30] and in series [32] were 96.2% and 94.5%, respectively. The Vd in series [4] stood at 1.4 L/kg. For the same molecule, the remaining at 0.5 h in series [5] was found to be 95%; in series [22], 91%. In series [6], the Cmax/dose amounted to 0.27 µM. For the same molecule, the AUC/dose came to 1490 nM·kg·h/mg in series [7] and 2750 nM·kg·h/mg in series [14]. Also, the remaining at 1 h in [9] amounted to 91%; in [20] it was 95%. For the same molecule, the microsomal CLint at 1 µM turned out to be 19 µL/min/mg in [11], 19 µL/min/mg in [16] and 22 µL/min/mg in [26]. Also, the half-life in [12] was 90 min. Moreover, in series [31], the clearance – broadly, the volume of plasma or blood freed of the substance per unit of time – worked out at 0.96 L/h/kg. Moreover, the time to peak (Tmax) in [17] was 18 min. The figures for the Activity in [33] and in series [34] were 24% and 63%, respectively. In series [27], this molecule returned a bioavailability of 54%.

In the case of `[2H]C([2H])([2H])C(c1nccc(-c2sc(NC(=O)N3CCC[C@H]3C(N)=O)nc2C)n1)(C([2H])([2H])[2H])C([2H])([2H])O`, the Drug metabolism result in series [28] and in [29] was “Metabolite_Detected” throughout.

Regarding `Cc1nc(NC(=O)N2CCC[C@H]2C(N)=O)sc1-c1ccnc(C(C)(C)CO)n1`, the Drug metabolism entry in [2] and in [3] was “Metabolite_Detected” in each case.

(Values after ChEMBL document CHEMBL3860046, “Increasing metabolic stability via the deuterium kinetic isotope effect: An example from a proline-amide-urea aminothiazole series of phosphatidylinositol-3 kinase alpha inhibitors” (Bioorg Med Chem Lett, 2016).)
